Measurements taken from the supplement of paper PMC10307832.

Experiments:
Experiment in all cases: relative viability (nuclei count vs DMSO), 5 days (fraction); higher = more cells survive
[1] = test system: EKVX
How it was run: (§1)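 Dosing by pin tool came one day after lung cancer cell lines were seeded in 1536-well plates, using either one drug or a fixed anchor-drug dose plus five library-drug doses (not always all listed) in √10 steps. After 5 days, nuclei were counted on 4× images. Relative viability is treated-well nuclei count divided by vehicle-well nuclei count, and values are medians of duplicate plates.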

[2] = test system: HCC-366
How it was run: as §1

[3] = test system: NCI-H2087
How it was run: as §1

[4] = test system: LOU-NH91
How it was run: as §1

[5] = test system: NCI-H647
How it was run: as §1

[6] = test system: NCI-H1792
How it was run: as §1

[7] = test system: SK-MES-1
How it was run: as §1

[8] = test system: SK-LU-1
How it was run: as §1

[9] = test system: BEN
How it was run: as §1

[10] = test system: NCI-H1395
How it was run: as §1

[11] = test system: NCI-H1355
How it was run: as §1

[12] = test system: NCI-H1993
How it was run: as §1

[13] = test system: NCI-H1734
How it was run: as §1

[14] = test system: NCI-H1437
How it was run: as §1

[15] = test system: NCI-H2170
How it was run: as §1

[16] = test system: NCI-H2405
How it was run: as §1

[17] = test system: NCI-H2009
How it was run: as §1

[18] = test system: HCC-827
How it was run: as §1

[19] = test system: HARA
How it was run: as §1

O=c1cc(-c2cccc3c2Sc2ccccc2S3)oc(N2CCOCC2)c1 + CC1(C)CCC(c2ccc(Cl)cc2)=C(CN2CCN(c3ccc(C(=O)NS(=O)(=O)c4ccc(N[C@H](CCN5CCOCC5)CSc5ccccc5)c(S(=O)(=O)C(F)(F)F)c4)cc3)CC2)C1 [Navitoclax] (partner 0.5 µM)
relative viability ([1]; first compound 0.08 µM): 0.975
relative viability ([1]; first compound 0.253 µM): 0.998
relative viability ([1]; first compound 0.8 µM): 0.888
relative viability ([1]; first compound 2.53 µM): 0.954
relative viability ([1]; first compound 8 µM): 0.965
relative viability ([2]; first compound 0.08 µM): 0.987
relative viability ([2]; first compound 0.253 µM): 1.19
relative viability ([2]; first compound 0.8 µM): 1.07
relative viability ([2]; first compound 2.53 µM): 0.98
relative viability ([2]; first compound 8 µM): 0.996
relative viability ([3]; first compound 0.08 µM): 0.995
relative viability ([3]; first compound 0.253 µM): 1.3
relative viability ([3]; first compound 0.8 µM): 1.07
relative viability ([3]; first compound 2.53 µM): 0.955
relative viability ([3]; first compound 8 µM): 1.21
relative viability ([4]; first compound 0.08 µM): 0.711
relative viability ([4]; first compound 0.253 µM): 0.68
relative viability ([4]; first compound 0.8 µM): 0.573
relative viability ([4]; first compound 2.53 µM): 0.59
relative viability ([4]; first compound 8 µM): 0.705
relative viability ([5]; first compound 0.08 µM): 1.2
relative viability ([5]; first compound 0.253 µM): 1.15
relative viability ([5]; first compound 0.8 µM): 1.12
relative viability ([5]; first compound 2.53 µM): 1.04
relative viability ([5]; first compound 8 µM): 1.37
relative viability ([6]; first compound 0.253 µM): 0.761
relative viability ([6]; first compound 0.8 µM): 0.471
relative viability ([6]; first compound 2.53 µM): 0.555
relative viability ([6]; first compound 8 µM): 0.689
relative viability ([7]; first compound 0.08 µM): 1.1
relative viability ([7]; first compound 0.253 µM): 1.54
relative viability ([7]; first compound 0.8 µM): 1.2
relative viability ([7]; first compound 2.53 µM): 1.17
relative viability ([7]; first compound 8 µM): 1.24
relative viability ([8]; first compound 0.08 µM): 0.684
relative viability ([8]; first compound 0.253 µM): 0.924
relative viability ([8]; first compound 0.8 µM): 0.787
relative viability ([8]; first compound 2.53 µM): 1.02
relative viability ([8]; first compound 8 µM): 1.09
relative viability ([9]; first compound 0.08 µM): 0.0636
relative viability ([9]; first compound 0.253 µM): 0.0609
relative viability ([9]; first compound 0.8 µM): 0.0602
relative viability ([9]; first compound 2.53 µM): 0.0598
relative viability ([9]; first compound 8 µM): 0.0681
relative viability ([10]; first compound 0.08 µM): 1.14
relative viability ([10]; first compound 0.253 µM): 1.1
relative viability ([10]; first compound 0.8 µM): 1.12
relative viability ([10]; first compound 2.53 µM): 1.13
relative viability ([10]; first compound 8 µM): 1.03
relative viability ([11]; first compound 0.08 µM): 0.982
relative viability ([11]; first compound 0.253 µM): 1.06
relative viability ([11]; first compound 0.8 µM): 0.847
relative viability ([11]; first compound 2.53 µM): 0.942
relative viability ([11]; first compound 8 µM): 0.685
relative viability ([12]; first compound 0.08 µM): 1.09
relative viability ([12]; first compound 0.253 µM): 0.989
relative viability ([12]; first compound 0.8 µM): 0.768
relative viability ([12]; first compound 2.53 µM): 0.824
relative viability ([12]; first compound 8 µM): 0.871
relative viability ([13]; first compound 0.08 µM): 0.845
relative viability ([13]; first compound 0.253 µM): 1.13
relative viability ([13]; first compound 0.8 µM): 1.06
relative viability ([13]; first compound 2.53 µM): 0.818
relative viability ([13]; first compound 8 µM): 1.02
relative viability ([14]; first compound 0.08 µM): 1.08
relative viability ([14]; first compound 0.253 µM): 1.58
relative viability ([14]; first compound 0.8 µM): 1.09
relative viability ([14]; first compound 2.53 µM): 1.11
relative viability ([14]; first compound 8 µM): 1.39
relative viability ([15]; first compound 0.08 µM): 0.693
relative viability ([15]; first compound 0.253 µM): 0.749
relative viability ([15]; first compound 0.8 µM): 0.642
relative viability ([15]; first compound 2.53 µM): 0.55
relative viability ([15]; first compound 8 µM): 0.519
relative viability ([16]; first compound 0.08 µM): 0.887
relative viability ([16]; first compound 0.253 µM): 0.761
relative viability ([16]; first compound 0.8 µM): 0.794
relative viability ([16]; first compound 2.53 µM): 0.825
relative viability ([16]; first compound 8 µM): 0.78
relative viability ([17]; first compound 0.08 µM): 1.22
relative viability ([17]; first compound 0.253 µM): 1.2
relative viability ([17]; first compound 0.8 µM): 1.21
relative viability ([17]; first compound 2.53 µM): 1.05
relative viability ([17]; first compound 8 µM): 1.11
relative viability ([18]; first compound 0.08 µM): 1.05
relative viability ([18]; first compound 0.253 µM): 1.06
relative viability ([18]; first compound 0.8 µM): 1.08
relative viability ([18]; first compound 2.53 µM): 0.998
relative viability ([18]; first compound 8 µM): 1.07
relative viability ([19]; first compound 0.08 µM): 1.16
relative viability ([19]; first compound 0.253 µM): 1.36
relative viability ([19]; first compound 0.8 µM): 1.01
relative viability ([19]; first compound 2.53 µM): 1.11
relative viability ([19]; first compound 8 µM): 1.2

COc1nc(C)cnc1NS(=O)(=O)c1cccnc1-c1ccc(-c2nnco2)cc1 [Zibotentan] + CC1(C)CCC(c2ccc(Cl)cc2)=C(CN2CCN(c3ccc(C(=O)NS(=O)(=O)c4ccc(N[C@H](CCN5CCOCC5)CSc5ccccc5)c(S(=O)(=O)C(F)(F)F)c4)cc3)CC2)C1 [Navitoclax] (partner 0.5 µM)
relative viability ([1]; first compound 0.08 µM): 0.938
relative viability ([1]; first compound 0.253 µM): 1
relative viability ([1]; first compound 0.8 µM): 0.943
relative viability ([1]; first compound 2.53 µM): 1.06
relative viability ([2]; first compound 0.08 µM): 1.12
relative viability ([2]; first compound 0.253 µM): 1.14
relative viability ([2]; first compound 0.8 µM): 1.15
relative viability ([2]; first compound 2.53 µM): 1.06
relative viability ([3]; first compound 0.08 µM): 1.03
relative viability ([3]; first compound 0.253 µM): 1.15
relative viability ([3]; first compound 0.8 µM): 0.983
relative viability ([3]; first compound 2.53 µM): 1.05
relative viability ([4]; first compound 0.08 µM): 0.693
relative viability ([4]; first compound 0.253 µM): 0.635
relative viability ([4]; first compound 0.8 µM): 0.812
relative viability ([4]; first compound 2.53 µM): 0.66
relative viability ([5]; first compound 0.08 µM): 1.34
relative viability ([5]; first compound 0.253 µM): 0.875
relative viability ([5]; first compound 0.8 µM): 1
relative viability ([5]; first compound 2.53 µM): 1.17
relative viability ([6]; first compound 0.08 µM): 0.597
relative viability ([6]; first compound 0.253 µM): 0.605
relative viability ([6]; first compound 0.8 µM): 0.588
relative viability ([6]; first compound 2.53 µM): 0.604
relative viability ([7]; first compound 0.08 µM): 1.32
relative viability ([7]; first compound 0.253 µM): 1.14
relative viability ([7]; first compound 0.8 µM): 1.21
relative viability ([7]; first compound 2.53 µM): 1.29
relative viability ([8]; first compound 0.08 µM): 0.911
relative viability ([8]; first compound 0.253 µM): 0.683
relative viability ([8]; first compound 0.8 µM): 1.04
relative viability ([8]; first compound 2.53 µM): 0.781
relative viability ([9]; first compound 0.08 µM): 0.0813
relative viability ([9]; first compound 0.253 µM): 0.0646
relative viability ([9]; first compound 0.8 µM): 0.059
relative viability ([9]; first compound 2.53 µM): 0.0664
relative viability ([10]; first compound 0.08 µM): 1.54
relative viability ([10]; first compound 0.253 µM): 1.03
relative viability ([10]; first compound 0.8 µM): 1.07
relative viability ([10]; first compound 2.53 µM): 1.12
relative viability ([11]; first compound 0.08 µM): 0.991
relative viability ([11]; first compound 0.253 µM): 0.968
relative viability ([11]; first compound 0.8 µM): 0.928
relative viability ([11]; first compound 2.53 µM): 1.1
relative viability ([12]; first compound 0.253 µM): 0.955
relative viability ([12]; first compound 0.8 µM): 0.813
relative viability ([12]; first compound 2.53 µM): 0.956
relative viability ([13]; first compound 0.08 µM): 0.906
relative viability ([13]; first compound 0.253 µM): 0.881
relative viability ([13]; first compound 0.8 µM): 0.822
relative viability ([13]; first compound 2.53 µM): 0.897
relative viability ([14]; first compound 0.08 µM): 1.12
relative viability ([14]; first compound 0.253 µM): 1.04
relative viability ([14]; first compound 0.8 µM): 1.07
relative viability ([14]; first compound 2.53 µM): 1.17
relative viability ([15]; first compound 0.08 µM): 0.699
relative viability ([15]; first compound 0.253 µM): 0.6
relative viability ([15]; first compound 0.8 µM): 0.651
relative viability ([15]; first compound 2.53 µM): 0.651
relative viability ([16]; first compound 0.08 µM): 0.904
relative viability ([16]; first compound 0.253 µM): 0.725
relative viability ([16]; first compound 0.8 µM): 0.921
relative viability ([16]; first compound 2.53 µM): 1.01
relative viability ([17]; first compound 0.08 µM): 1.17
relative viability ([17]; first compound 0.253 µM): 1.08
relative viability ([17]; first compound 0.8 µM): 1.2
relative viability ([17]; first compound 2.53 µM): 1.25
relative viability ([18]; first compound 0.08 µM): 1.01
relative viability ([18]; first compound 0.253 µM): 1
relative viability ([18]; first compound 0.8 µM): 1.02
relative viability ([18]; first compound 2.53 µM): 1.02
relative viability ([19]; first compound 0.08 µM): 1.2
relative viability ([19]; first compound 0.253 µM): 1.12
relative viability ([19]; first compound 0.8 µM): 1.11
relative viability ([19]; first compound 2.53 µM): 1.11
